Literature values as cited in patent US20220395489A1, “THERAPEUTIC APPROACH FOR TREATING INFLAMMATORY BOWEL DISEASE” (THE REGENTS OF THE UNIVERSITY OF CALIFORNIA, priority 2019, published 2022).
Non-standard residues stand in square brackets, D forms with d. Residues, ends and D or L forms follow the SMILES beside them. *: point of attachment. Sta = CC(C)C[C@H](N)[C@@H](O)CC(=O)O; Isovaleryl = CC(C)CC(=O)*

How the values were obtained:
[1] = water
[2] = low pH values, compared with PMSF

CC(C)CC(=O)N[C@H](C(=O)N[C@H](C(=O)N[C@@H](CC(C)C)[C@@H](O)CC(=O)N[C@@H](C)C(=O)N[C@@H](CC(C)C)[C@@H](O)CC(=O)O)C(C)C)C(C)C [Pepstatin, Isovaleryl-Val-Val-Sta-Ala-Sta] (Isovaleryl-VV[Sta]A[Sta]-OH)
ability to inhibit pepsin (pepsin): picomolar concentrations

Cl.NCCc1ccc(S(=O)(=O)F)cc1 [AEBSF, 4-(2-aminoethyl)benzenesulfonyl fluoride hydrochloride]
solubility [1]: water-soluble | stability [2]: more stable
